Data from patent US8946234B2, “Halogen-substituted compounds” (Bayer CropScience AG, priority 2008, dated 2015).

Assay: physchem
Format: physicochemical
Settings: not given
Summary of the method: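 Reversed-phase C18 HPLC (50×4.6 mm, 1.8 micron), 55 °C, 2.0 ml/min, acetonitrile/water with formic acid. Linear gradient 10% to 95% acetonitrile over 4.25 min, then 95% for 1.25 min. logP derived from retention per EEC Directive 79/831 Annex V.A8; MS detection.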

SMILES	logP
Cn1nc(C(F)(F)C(F)(F)F)c(C(F)(F)F)c1C(=O)Nc1cc(Br)c(I)c(C(=O)NCC(F)(F)F)c1 [Ik-212]	4.15^a)
Cn1nc(C(F)(F)C(F)(F)F)c(C(F)(F)F)c1C(=O)Nc1ccc(Br)c(C(=O)NCc2ccccc2)c1 [Ik-172]	4.03^a)
Cn1nc(C(F)(F)C(F)(F)F)c(C(F)(F)F)c1C(=O)Nc1ccc([N+](=O)[O-])c(C(=O)NC2CC2)c1 [Ik-180]	3.27^a)
O=C(NC1CC1)c1cc(NC(=O)c2cnc(C(F)(F)C(F)(F)C(F)(F)F)nc2C(F)(F)F)ccc1Cl [Ib-15]	3.56^a)
CC(NC(=O)c1cc(NC(=O)c2c(Cl)c(C(F)(F)F)nn2C)ccc1Cl)C(F)(F)F (centres unmarked) [Ik-152]	3.44^a)
Cn1nc(C(F)(F)C(F)(F)F)c(C(F)(F)F)c1C(=O)Nc1ccc(Cl)c(C(=O)OCC(=O)NCO)c1 [Ik-115]	2.93^a)
Cn1nc(OC(F)F)cc1C(=O)Nc1ccc(Cl)c(C(=O)NC2CC2)c1 [Ik-234]	2.17^a)
COC(=O)COC(=O)c1cc(NC(=O)c2c(C(F)(F)F)c(C(F)(F)C(F)(F)F)nn2C)ccc1Cl [Ik-107]	4.03^a)
Cn1nc(C(F)(F)C(F)(F)F)c(Br)c1C(=O)Nc1ccc(Cl)c(C(=O)NCC=CCl)c1 [Ik-28]	3.64^a)
CC(NC(=O)c1cc(NC(=O)c2c(C(F)(F)F)c(C(F)(F)C(F)(F)F)nn2C)ccc1F)C(F)(F)F (centres unmarked) [Ik-161]	3.89^a)
Cn1nc(C(F)(F)C(F)(F)C(F)(F)F)c(Br)c1C(=O)Nc1ccc(Cl)c(C(=O)NC2CC2)c1 [Ik-73]	3.58^a)
Cn1nc(C(F)(F)F)c(Cl)c1C(=O)Nc1ccc(Cl)c(C(=O)NCc2ccccc2)c1 [Ik-20]	3.46^a)
C=CCNC(=O)c1cc(NC(=O)c2c(C(F)(F)F)c(C(F)(F)C(F)(F)F)nn2C)ncc1Br [Ik-315]	3.42^a)
Cn1nc(C(F)(F)C(F)(F)F)c(C(F)(F)F)c1C(=O)Nc1ccc(I)c(C(=O)NCc2ccccc2)c1 [Ik-184]	4.07^a)
Cn1nc(C(F)(F)C(F)(F)F)c(C(F)(F)F)c1C(=O)Nc1cc(F)c(Cl)c(C(=O)NCc2ccccc2)c1 [Ik-189]	4.14^a)
CSc1c(Cl)cc(NC(=O)c2c(C(F)(F)F)c(C(F)(F)C(F)(F)F)nn2C)cc1C(=O)NCC(F)(F)F [Ik-203]	4.15^a)
Cn1nc(C(F)(F)C(F)(F)F)c(C(F)(F)F)c1C(=O)Nc1cc2c(cc1F)COC2=O [Ik-105]	3.27^a)
O=C(NC1CC1)c1cc(NC(=O)c2cnc(C(F)(F)C(F)(F)F)nc2C(F)(F)F)ccc1Cl [Ib-7]	3.20^a)
O=C(NCC(F)(F)F)c1cc(NC(=O)c2nccc(C(F)(F)F)c2Cl)ccc1Cl [Ie-3]	2.88^a)
CSc1c(F)cc(NC(=O)c2c(C(F)(F)F)c(C(F)(F)C(F)(F)F)nn2C)cc1C(=O)NCc1ccccc1 [Ik-192]	4.15^a)
CSc1c(F)cc(NC(=O)c2c(C(F)(F)F)c(C(F)(F)C(F)(F)F)nn2C)cc1C(=O)NC1CC1 [Ik-191]	3.57^a)
CSc1c(Br)cc(NC(=O)c2c(C(F)(F)F)c(C(F)(F)C(F)(F)F)nn2C)cc1C(=O)NCC(F)(F)F [Ik-200]	4.22^a)
Cn1nc(C(F)(F)C(F)(F)F)c(C(F)(F)F)c1C(=O)Nc1cc(F)c(S(C)(=O)=O)c(C(=O)NC2CC2)c1 [Ik-194]	2.92^a)
Cc1nc(C(F)(F)C(F)(F)F)nc(C)c1C(=O)Nc1ccc(Cl)c(C(=O)NCC=CCl)c1 [Ib-13]	3.26^a)

SMILES	logP
Cn1nc(C(F)(F)F)c(Cl)c1C(=O)Nc1ccc(Cl)c(C(=O)NC2CC2)c1 [Ik-18]	2.77^a)
Cc1nc(C(F)(F)F)ccc1C(=O)Nc1ccc(Cl)c(C(=O)NC(C)C)c1 [Ir-4]	2.53^a)
CCN(C(=O)c1c(C(F)(F)F)c(C(F)(F)C(F)(F)F)nn1C)c1ccc(Cl)c(C(=O)NC2CC2)c1 [Ik-136]	3.55^a)
Cn1nc(C(F)(F)C(F)(F)F)c(C(F)(F)F)c1C(=O)Nc1cc(Br)c(Cl)c(C(=O)NCC(F)(F)F)c1 [Ik-178]	4.14^a)
O=C(NCC(F)(F)F)c1cc(NC(=O)c2cnc(C(F)(F)C(F)(F)F)nc2C(F)F)ccc1Cl [Ib-28]	3.27^a)
Cn1nc(C(F)(F)C(F)(F)F)c(C(F)(F)F)c1C(=O)Nc1cccc(C(=O)NCc2ccccc2)c1 [Ik-14]	3.77^a)
Cn1nc(-c2ccc(C(F)(F)F)cc2)c(Br)c1C(=O)Nc1ccc(Cl)c(C(=O)NCC(F)(F)F)c1 [Ik-253]	3.99^a)
Cn1nc(C(F)(F)C(F)(F)F)c(C(F)(F)F)c1C(=O)Nc1cc(Br)c(Cl)c(C(=O)NC2CC2)c1 [Ik-7]	3.81^a)
Cn1nc(C(F)(F)C(F)(F)F)c(C(F)(F)F)c1C(=O)Nc1cc(C(=O)NC2CC2)c(Cl)cc1F [Ik-143]	3.39^a)
Cc1nc(C(F)(F)F)ncc1C(=O)Nc1ccc(Cl)c(C(=O)NCc2ccccc2)c1 [Ib-22]	2.94^a)
Cn1nc(C(F)(F)C(F)(F)F)c(C(F)(F)F)c1C(=O)Nc1cccc(C(=O)NC2CC2)c1 [Ik-13]	3.15^a)
Cn1nc(-c2ccc(Cl)cc2Cl)c(Br)c1C(=O)Nc1ccc(Cl)c(C(=O)NCC(F)(F)F)c1 [Ik-254]	4.04^a)
O=C(NCc1ccccc1)c1cc(NC(=O)c2cnc(C(F)(F)C(F)(F)F)nc2C(F)F)ccc1Cl [Ib-29]	3.51^a)
Cn1nc(C(F)(F)C(F)(F)F)c(C(F)(F)F)c1C(=O)Nc1ccc(Cl)c(C(=O)NCc2ccc(F)cn2)c1 [Ik-80]	4.75^a)
Cn1nc(C(F)(F)C(F)(F)F)c(C(F)(F)F)c1C(=O)Nc1cc(Cl)c(Br)c(C(=O)NCc2ccccc2)c1 [Ik-214]	4.42^a)
Cn1nc(C(F)(F)C(F)(F)F)c(C(F)(F)F)c1C(=O)Nc1cc(C(=O)NCc2ccccc2)c(Cl)cc1F [Ik-142]	4.00^a)
Cn1nc(C(F)(F)C(F)(F)C(F)(F)C(F)(F)F)c(I)c1C(=O)Nc1ccc(Cl)c(C(=O)NCC=CCl)c1 [Ik-269]	4.27^a)
Cn1nc(-c2cc(C(F)(F)F)cc(C(F)(F)F)c2)c(C(F)(F)F)c1C(=O)Nc1ccc(Cl)c(C(=O)NCC(F)(F)F)c1 [Ik-258]	4.46^a)
O=C(NC1CC1)c1cc(NC(=O)c2nccc(C(F)(F)F)c2Cl)ccc1Cl [Ie-1]	2.48^a)
O=C(NCC=CCl)c1cc(NC(=O)c2cnc(C(F)(F)C(F)(F)F)nc2C(F)F)ccc1Cl [Ib-32]	3.29^a)
Cn1nc(C(F)(F)C(F)(F)F)c(C(F)(F)F)c1C(=O)Nc1cc(F)c(I)c(C(=O)NC2CC2)c1 [Ik-225]	3.63^a)
O=C(NCc1ccccc1)c1cc(NC(=O)c2nccc(C(F)(F)F)c2Cl)ccc1Cl [Ie-5]	3.16^a)
CSCCNC(=O)c1cc(NC(=O)c2c(C(F)(F)F)c(C(F)(F)C(F)(F)F)nn2C)ccc1Cl [Ik-82]	3.57^a)

Same assay, conditions: HPLC method a), eluent acetonitrile/water with formic acid; read-out: logP

SMILES	chromatographic logP
Cn1nc(C(F)(F)C(F)(F)F)c(C(F)(F)F)c1C(=O)O [1-Methyl-3-pentafluoroethyl-4-trifluoromethyl-1H-pyrazole-5-carboxylic acid]	1.86
Cn1ccc(C(F)(F)C(F)(F)C(F)(F)F)n1 [1-Methyl-3-heptafluoropropyl-1H-pyrazole]	2.84
CCOC(=O)c1cnc(C(F)(F)C(F)(F)C(F)(F)F)nc1C(F)(F)F [Ethyl 2-(heptafluoropropyl)-4-(trifluoromethyl)pyrimidine-5-carboxylate]	4.32

Same assay, conditions: HPLC on C18 phase inversion column, method a)

SMILES	logP
COCn1nc(C(F)(F)C(F)(F)F)c(C(F)(F)F)c1C(=O)Nc1ccc(Cl)c(C(=O)NCC(F)(F)F)c1 [Ik-220]	3.82^a)

Same assay, conditions: HPLC phase inversion (reversed-phase) C18 column, HPLC method a), eluent acetonitrile/water with formic acid; read-out: logP

chromatographic logP	SMILES
4.04	COC(=O)c1cc(NC(=O)c2c(C(F)(F)F)c(C(F)(F)C(F)(F)F)nn2C)ncc1Br [methyl 5-bromo-2-({[1-methyl-3-(pentafluoroethyl)-4-(trifluoromethyl)-1H-pyrazol-5-yl]carbonyl}amino)-isonicotinate]
3.68	CCOC(=O)c1c(C)nc(C(F)(F)C(F)(F)F)nc1C [Ethyl 4,6-dimethyl-2-(pentafluoroethyl)pyrimidine-5-carboxylate]
2.55	O=C(NC1CC1)c1cc(NC(=O)c2ncc(Cl)cc2C(F)(F)F)ccc1Cl [5-chloro-N-[4-chloro-3-(cyclopropylcarbamoyl)phenyl]-3-(trifluoromethyl)pyridine-2-carboxamide]
2	Cn1nc(C(O)C2CC2)c(C(F)(F)F)c1C(=O)Nc1ccc(Cl)c(C(=O)NC2CC2)c1 (centres unmarked) [N-[4-chloro-3-(cyclopropylcarbamoyl)phenyl]-3-[cyclopropyl(hydroxy)methyl]-1-methyl-4-(trifluoromethyl)-1H-pyrazole-5-carboxamide]
1.8	O=C(O)c1cnc(C(F)(F)C(F)(F)F)nc1C(F)F [4-(Difluoromethyl)-2-(pentafluoroethyl)pyrimidine-5-carboxylic acid]
1.75	COC(=O)c1c(Cl)cnc(N)c1Cl [methyl 2-amino-3,5-dichloroisonicotinate]
2.9	O=C(NC1CC1)c1cc(NC(=O)c2ncc(OCC(F)(F)F)cc2C(F)(F)F)ccc1Cl [Ii-7, N-[4-Chloro-3-(cyclopropylcarbamoyl)phenyl]-5-(2,2,2-trifluoroethoxy)-3-(trifluoromethyl)pyridine-2-carboxamide]
2.27	Cn1nc(C(F)(F)C(F)(F)F)c(C(F)(F)F)c1C(=O)Nc1cnc(Cl)c(C(=O)O)c1 [Ik-131, 2-Chloro-5-({[1-methyl-3-(pentafluoroethyl)-4-(trifluoromethyl)-1H-pyrazol-5-yl]carbonyl}amino)nicotinic acid]
4.55	CCOC(=O)c1cc(NC(=O)c2nc(C)nc(C(F)(F)C(F)(F)F)c2C(F)(F)F)ccc1Cl [ethyl 2-chloro-5-({[2-methyl-6-(pentafluoroethyl)-5-(trifluoromethyl)pyrimidin-4-yl]-carbonyl}amino)benzoate]
4.69	Cn1nc(C(F)(F)C(F)(F)F)c(Br)c1C(=O)O [4-Bromo-1-methyl-3-pentafluoroethyl-1H-pyrazole-5-carboxylic acid]

Same assay, conditions: HPLC phase inversion (reversed-phase) C18 column, HPLC on C18 phase inversion column, method a); read-out: logP

chromatographic logP	SMILES
2.77	Cn1nc(C(F)(F)C(F)(F)F)c(C(F)(F)F)c1C(=O)Nc1cnc(Cl)c(C(=O)O)c1 [Ik-131, 2-Chloro-5-({[1-methyl-3-(pentafluoroethyl)-4-(trifluoromethyl)-1H-pyrazol-5-yl]carbonyl}amino)nicotinic acid]
